In patent US20220409696A1, “Heparin-Associated Polypeptides and Uses Thereof” (Juvena Therapeutics, Inc., priority 2021, published 2022):

What was measured:
[1] = system: human myoblast cells; assay: Human myoblast differentiation (% eMyHC area), IGF2 and/or sodium butyrate; format: cell-based; settings: IGF2 0.015 ug/mL, 96 h (FIG. 3B/3C)
Experimental: Human myoblast cells were treated with either PBS (vehicle), IGF2 (15 ng/mL), sodium butyrate, or IGF2 and sodium butyrate. Fresh media was added every 24 hours. After 96 hours, cells were pulsed for 2-5 hours with EdU (30 uM), ethanol fixed, stained with Hoescht 3342, immunostained for proliferation—as measured by the percent of cells staining positive for EdU (% EdU)-, and immunostained for differentiation—as measured by the increase in cellular area staining positive for embryonic myosin heavy chain (% eMyHC) relative to the negative controls, which received media and vehicle only. The total area of eMyHc positive cells was analyzed, and treated cells were compared to cells treated with the vehicle alone. […] Significance was determined by a p-value less than 0.05 by the one-way ANOVA Tukey Honest Significant Difference test.
FIG. 3C Bar graph quantitation of % Area eMyHC+ human myoblast in response to indicated treatment compared to IGF2 (15 ng/mL). Myoblast were cultured 96 h in the presence of IGF2 at indicated dose. Fresh media and IGF2 was added every 24 h.
Human myoblast cells were treated with either PBS (vehicle), IGF2 (15 ng/mL), sodium butyrate, or IGF2 and sodium butyrate. Fresh media was added every 24 hours. After 48 hours, cells were pulsed for 2-5 hours with EdU (30 uM), ethanol fixed, stained with Hoescht 3342, immunostained for proliferation […] as measured by the percent of cells staining positive for EdU (% EdU)-, and immunostained for differentiation—as measured by the increase in cellular area staining positive for embryonic myosin heavy chain (% eMyHC) relative to the negative controls, which received media and vehicle only.
Significance was determined by a p-value less than 0.05 by the one-way ANOVA Tukey Honest Significant Difference test.

[2] = system: DM1 human myoblast; assay: Gene expression fold change in DM1 human myoblast; format: cell-based; settings: IGF2 200 ng/mL
Experimental: Myoblasts were cultured 48 h in the presence of factors (BMP7 50 ng/mL, Butyrate 100 nM, IGF2 200 ng/mL).
Myoblasts were cultured 96 h in the presence of factors (IGF2 200 ng/mL). […] Myoblasts were cultured 48 h in the presence of factors (IGF2 200 ng/mL).
RNA was isolated from each well (RNeasy Mini Kit, Qiagen) and cDNA was obtained by reverse-transcription (High Capacity Reverse Transcription Kit, Thermo Fisher Scientific). Real-time quantitative PCR was performed using QuantStudio3 (Thermo Fisher).
(§1) IGF2 was tested individually for its ability to promote proliferation and/or fusion of human muscle progenitor cells from an individual with myotonic dystrophy type 1 (hMD)—a muscular dystrophy caused by mutations in the DMPK1 gene. The effect of IGF2 on myogenic activity was assayed in biological triplicate across a range of concentrations centered around expected physiological levels by adding each factor to hMD myoblasts for 72 hours with daily media changes (DMEM+2% horse serum) and a second pulse of factors at the first media change. After 72 or 96 hours, cells were pulsed for 2-5 hours with EdU (30 uM), ethanol fixed, stained with Hoescht 3342, immunostained for proliferation—as measured by the percent of cells staining positive for EdU (% EdU)-, and immunostained for differentiation—as measured by the increase in cellular area staining positive for embryonic myosin heavy chain (% eMyHC) relative to the negative controls, which received media and vehicle only. Wells were imaged on a Keyence BZ-100 at 4×, the images quantified in Cell Profiler, and the statistics were computed in R. Additionally, RNA was extracted from myoblast and select transcript abundances quantified by qPCR.

[3] = system: DM1 human myoblast cells; assay: Proliferation (EdU) of DM1 human myoblast; format: cell-based; settings: 72 h for proliferation
Experimental: FIG. 7A Bar graph of % EdU+ human myoblast (person) and FIG. 7B % area MyHC in response to IGF2. Myoblast were cultured 72 h for proliferation and 96 h for fusion in the presence of indicated factor. Mean∓S.D. Mean∓SD. Significant p-values (EdU: Vehicle˜IGF2: 6.8E-3, % eMyHC Area: Vehicle˜IGF2: 1.9E-4) (*p<0.05 by Students Two-Tailed T-test, n=3−6).
as §1, with “The effect of IGF2 on myogenic activity was assayed in biological triplicate across a range of concentrations centered around expected physiological levels by adding each factor to hMD myoblasts for 72 hours with daily media changes (DMEM+2% horse serum) and a second pulse of factors at the first media change.” left out, “qPCR. […]” for “qPCR.”

[4] = Pharmacokinetics after intravenous injection in mice; format: in vivo; settings: mice 10-12 weeks old, dose 10 mg/kg (HSA-IGF2R61A), 600 ug/kg (IGF2), Non-Compartment Analysis
Experimental: Murine pharmacokinetics (PK) represents the absorption, distribution, metabolism, and elimination of drugs from the body. The pharmacokinetic profile of the therapeutic polypeptides were determined in mice (10-12 weeks old). Mice were fed ad libitum and housed under controlled conditions of lighting (12-hour light/12-hour dark) and temperature (22-24° C.). Mice were allowed to acclimate for 3 days prior to the initiation of the experiment. Intravenous (IV) injection in 10-12 weeks old mice. Engineered mitogenic polypeptides concentrations in the samples were measured by ELISA. Various pharmacokinetics will be calculated as well as the absorption/elimination dynamics following different routes of administration.

[5] = 48 h, BMP7 50 ng/mL, Butyrate 100 nM

Substance: IGF2: Human IGF2 polypeptide, amino acids 25 to 91 of SEQ ID NO. 32 (i.e. SEQ ID NO. 29)
- % eMyHC [1]: 10.843%
- ATP1B1 expression fold change compared to FM (vehicle) ([2]; 48 h): 3.018
- MYF5 myogenic gene expression fold change compared to FM (vehicle) [2, 5]: 0.730
- MYODI myogenic gene expression fold change compared to FM (vehicle) [2, 5]: 1.252
- MYOG myogenic gene expression fold change compared to FM (vehicle) [2, 5]: 2.972
- CKM expression fold change compared to vehicle ([2]; 96 h): 5.165
- MYH3 expression fold change compared to vehicle ([2]; 96 h): 14.833
- EdU FC [3]: 2.18
- Half-life [4]: 2.85 h
